For 17 compounds, MIC results are on record in ChEMBL document CHEMBL1133324, “Suitably functionalised pyrimidines as potential antimycotic agents” (2000).

≈ marks a conversion by molar mass, not a printed value.

Test [1] concerns Aspergillus fumigatus. In words: In vitro antifungal activity against human pathogenic fungi, Aspergillus fumigatus. In kind it is functional.
Test [2] relates to Candida albicans. In words: In vitro antifungal activity against human pathogenic fungi, Candida albicans. The class given is functional.
Test [3] deals with Cryptococcus neoformans. Put plainly: In vitro antifungal activity against human pathogenic fungi, Cryptococcus neoformans. In kind it is functional.
Test [4] has as its system Sporothrix schenckii. In words: In vitro antifungal activity against human pathogenic fungi, Sporothrix schenck ii. In kind it is functional.
In test [5] the test system is Trichophyton benhamiae. Put plainly: In vitro antifungal activity against human pathogenic fungi, Trichophyton mentagrophytes. In kind it is functional, Arthroderma benhamiae.

Consider `CSc1nc(-c2ccccc2)nc(Cl)c1C#N`, for which the MIC (as a rule, the lowest concentration found to suppress growth) is 0.02 µg/mL (≈ 0.0764 µM) in test [1]; above 100 µg/mL in test [2]; above 100 µg/mL in test [3]; above 100 µg/mL in test [4]; 12.5 µg/mL (≈ 47.8 µM) in test [5].

For the compound `COc1ccc(-c2nc(SC)nc(Nc3ccc(Cl)cc3)c2C#N)cc1`, the MIC in test [1], in test [2], in test [3], in test [4] and in test [5] was above 100 µg/mL throughout.

For the compound `CSc1nc(S)c(C#N)c(-c2cccc(F)c2)n1`, the MIC in test [1], in test [2], in test [3], in test [4] and in test [5] was above 100 µg/mL each time.

Regarding `CCc1nc(Cl)c(C#N)c(SC)n1`, the MIC in test [1] was found to be 6.25 µg/mL (≈ 29.2 µM); in test [2], 25 µg/mL (≈ 117 µM); in test [3], 1.56 µg/mL (≈ 7.3 µM); in test [4], 12.5 µg/mL (≈ 58.5 µM); in test [5] it was 1.56 µg/mL (≈ 7.3 µM).

On to `CSc1nc(Cl)c(C#N)c(-c2cccc(Cl)c2)n1`, for which the MIC in test [1] is 0.09 µg/mL (≈ 0.304 µM); in test [2], above 100 µg/mL; in test [3] it was 1.56 µg/mL (≈ 5.27 µM); in test [4], above 100 µg/mL; in test [5], 0.39 µg/mL (≈ 1.32 µM).

Regarding `CSc1nc(Nc2ccc(Cl)cc2)c(C#N)c(-c2ccc(F)cc2)n1`, the MIC in test [1], in test [2], in test [3], in test [4] and in test [5] was above 100 µg/mL each time.

Turning to `CSc1nc(Cl)c(C#N)c(SC)n1`, the MIC in test [1] was 0.002 µg/mL (≈ 0.00863 µM); in test [2], above 100 µg/mL; in test [3], 1.56 µg/mL (≈ 6.73 µM); in test [4], 50 µg/mL (≈ 216 µM); in test [5], 0.005 µg/mL (≈ 0.0216 µM).

Consider `CSc1nc(Cl)c(C#N)c(-c2cccc(F)c2)n1`, for which the MIC in test [1] was 0.09 µg/mL (≈ 0.322 µM); in test [2], above 100 µg/mL; in test [3], 50 µg/mL (≈ 179 µM); in test [4], above 100 µg/mL; in test [5], 0.09 µg/mL (≈ 0.322 µM).

Turning to `COc1ccc(-c2nc(SC)nc(Cl)c2C#N)cc1`, the MIC in test [1] was 50 µg/mL (≈ 171 µM); in test [2] it was above 100 µg/mL; in test [3], above 100 µg/mL; in test [4] it was above 100 µg/mL; in test [5], 50 µg/mL (≈ 171 µM).

`CSc1nc(Cl)c(C#N)c(-c2ccc(F)cc2)n1`: the MIC is 0.04 µg/mL (≈ 0.143 µM) in test [1]; above 100 µg/mL in test [2]; 50 µg/mL (≈ 179 µM) in test [3]; above 100 µg/mL in test [4]; 0.09 µg/mL (≈ 0.322 µM) in test [5].

For the compound `CSc1nc(Cl)c(C#N)c(-c2ccc(Cl)cc2)n1`, the MIC in test [1] is 0.04 µg/mL (≈ 0.135 µM); in test [2], above 100 µg/mL; in test [3], above 100 µg/mL; in test [4] it was above 100 µg/mL; in test [5] it was 0.19 µg/mL (≈ 0.641 µM).

On to `CSc1nc(SCc2ccccc2)nc(Cl)c1C#N`, for which the MIC in test [1] was 0.78 µg/mL (≈ 2.53 µM); in test [2], 50 µg/mL (≈ 162 µM); in test [3] it was 6.25 µg/mL (≈ 20.3 µM); in test [4] it was 50 µg/mL (≈ 162 µM); in test [5], 0.19 µg/mL (≈ 0.617 µM).

For the compound `CSc1nc(Nc2ccc(Cl)cc2)c(C#N)c(-c2cccc(F)c2)n1`, the MIC in test [1], in test [2], in test [3], in test [4] and in test [5] was above 100 µg/mL in each case.

As to `CSc1ncnc(Cl)c1C#N`, the MIC in test [1] is 0.39 µg/mL (≈ 2.1 µM); in test [2], 25 µg/mL (≈ 135 µM); in test [3] it was 1.56 µg/mL (≈ 8.4 µM); in test [4], 6.25 µg/mL (≈ 33.7 µM); in test [5], 0.39 µg/mL (≈ 2.1 µM).

Regarding `CCSc1nc(Cl)c(C#N)c(-c2cccc(F)c2)n1`, the MIC in test [1] was 1.56 µg/mL (≈ 5.31 µM); in test [2], above 100 µg/mL; in test [3] it was 3.12 µg/mL (≈ 10.6 µM); in test [4], 50 µg/mL (≈ 170 µM); in test [5], 0.39 µg/mL (≈ 1.33 µM).

As for `C[C@@H]1[C@H](O)[C@@H](C)/C=C/C=C/C=C/C=C/C=C/C=C/C=C/[C@H](O[C@@H]2O[C@H](C)[C@@H](O)[C@H](N)[C@@H]2O)C[C@@H]2O[C@](O)(C[C@@H](O)C[C@@H](O)[C@H](O)CC[C@@H](O)C[C@@H](O)CC(=O)O[C@H]1C)C[C@H](O)[C@H]2C(=O)O` [AMPHOTERICIN B], the figures for the MIC in test [1] and in test [5] were 0.002 µg/mL (≈ 0.00216 µM) and 0.005 µg/mL (≈ 0.00541 µM), respectively.

In the case of `CC(=O)N1CCN(c2ccc(OC[C@H]3CO[C@](Cn4ccnc4)(c4ccc(Cl)cc4Cl)O3)cc2)CC1` [KETOCONAZOLE], the MIC in test [1] was determined as 0.7 µg/mL (≈ 1.32 µM); in test [2] it was 0.3 µg/mL (≈ 0.565 µM); in test [3], 0.1 µg/mL (≈ 0.188 µM); in test [4], 25 µg/mL (≈ 47 µM); in test [5] it was 0.1 µg/mL (≈ 0.188 µM).
